In patent publication US20050130906A1, “Amelioration of macular degeneration and other ophthalmic diseases” (priority 2003, published 2005):

Legend:
[1] = tested on: blue light-illuminated A2E-laden RPE (ARPE-19 cells); experiment: Protection against A2E-mediated blue light damage (MTT assay and two-color fluorescence cell death assay); type: cell-based
Text: The ability of Tempol-H to protect against A2E-mediated blue light damage was examined.
Materials and Methods: ARPE-19 cells that have accumulated A2E in culture were exposed to 430±20 nm light delivered from a halogen source. This wavelength of light is relevant since (i) the excitation maximum of A2E is approximately 430 nm, and (ii) light of this wavelength reaches the RPE in vivo while light of wavelengths longer than 400 nm are not absorbed by the cornea and lens. Cell death in blue light-illuminated A2E-laden RPE was compared with and without pre-treatment (24 hours) with Tempol-H. The loss of cell viability was quantified by: • 1. A calorimetric microtiter assay based on ability of healthy metabolically active cells to cleave the yellow tetrazolium salt MTT to purple formazan crystals. Cell viability was assessed 24 hours after blue light illumination. Triplicate wells were assayed in each of 2 experiments.
2. Two-color fluorescence assay in which the nuclei of all dead cells appear red due to staining by a membrane-impermeant dye (Dead Red nuclei acid stain, Molecular Probes) with the nuclei of all cells stained blue with DAPI. Cell viability was assessed 8 hours after blue light illumination. Replicates were assayed by counting cells within 5 microscopic fields within the area of illumination in each well and 3 wells were assayed per experiment. Data are based on 3 experiments.

lens epithelial cells = conditions: Mitchell et al. 1991; Krishna et al. 1991; cited from earlier work
cataract = conditions: Zigler et al., U.S. Pat. No. 6,001,853; cited from earlier work
[2] = tested on: retinal S-antigen-induced experimental autoimmune uveoretinitis (EAU); conditions: rat model, after systemic injection; Zamir et al. 1999; cited from earlier work

| Compound | protection of blue light-illuminated A2E-laden RPE cells ([1]; 1 mM, FIG. 2) | protection against the death of A2E-laden RPE ([1]; blue light 430±20 nm, 24 hours pre-treatment, FIG. 1 and FIG. 2) | protection of blue light illuminated A2E-laden RPE cells ([1]; various concentrations, FIG. 1) | protection of lens epithelial cells from oxidative damage (lens epithelial cells) | anti-cataractogenic activity compared with the corresponding nitroxide (cataract) | severity of EAU [2] |
| --- | --- | --- | --- | --- | --- | --- |
| CC1(C)CC(O)CC(C)(C)N1O [Tempol-H] | protection | dose-dependent protection | protect | afforded no such protection | better anti-cataractogenic composition than the corresponding nitroxide | – |
| CC1(C)CC(O)CC(C)(C)N1[O] [tempol, 4-hydroxy-2,2,6,6,-tetramethylpiperidine-1-N-oxyl] | – | – | – | – | – | reduced the severity |
